Measurements as given in patent US5719278A, “Tricyclic benzazepine vasopressin antagonists” (American Cyanamid Company, priority 1996, dated 1998).
pIC50: −log10 of the molar value.

Legend:
Vasopressin V2 = Vasopressin V2 Antagonist Activity in Conscious Hydrated Rats; format: in vivo, rat; conditions: 10 mg/kg orally, N = 2, AVP 0.4 μg/kg intraperitoneally; for Osmolality (mOsm/kg): urine
Method: Vasopressin V2 Antagonist Activity in Conscious Hyrdated Rats
Conscious hydrated rats are treated with compounds under study from 0.1 to 100 mg/kg orally or vehicle. Two to four rats are used for each compound. One hour later, arginine vasopressin (AVP, antidiuretic hormone, ADH) dissolved in peanut oil is administered at 0.4 μg/kg intraperitoneally. Two rats in each test would not receive arginine vasopressin but only the vehicle (peanut oil) to serve as water-loading control. Twenty minutes later each rat is given 30 mL/kg of deionized water orally by gavage and is placed individually in a metabolic cage equipped with a funnel and a graduated glass cylinder to collect urine for four hours. Urine volume is measured and osmolality analyzed by use of a Fiske One-Ten osmometer (Fiske Assoc., Norwood, Mass. U.S.A.). Urinary sodium, potassium, and chloride are analyzed by use of ion-specific electrodes in a Beckman E3(Electrolyte 3) Analyzer.
In the following results, […] and decreased osmolality relative to AVP-control indicates activity.

oxytocin receptors = target: T1, oxytocin receptors (Rattus norvegicus, UniProt P70536); test: Oxytocin Receptor Binding; design: species or system Sprague-Dawley rat; conditions: for pIC50: 1.0 nM [^3 H]OT, 60 min., 22° C.
T1 construct: The uteri are dissected out, cleaned of fat and connective tissues; from tissue; host or cells: uterus of DES-treated female Sprague-Dawley rats
T1 sequence (P70536 1-388): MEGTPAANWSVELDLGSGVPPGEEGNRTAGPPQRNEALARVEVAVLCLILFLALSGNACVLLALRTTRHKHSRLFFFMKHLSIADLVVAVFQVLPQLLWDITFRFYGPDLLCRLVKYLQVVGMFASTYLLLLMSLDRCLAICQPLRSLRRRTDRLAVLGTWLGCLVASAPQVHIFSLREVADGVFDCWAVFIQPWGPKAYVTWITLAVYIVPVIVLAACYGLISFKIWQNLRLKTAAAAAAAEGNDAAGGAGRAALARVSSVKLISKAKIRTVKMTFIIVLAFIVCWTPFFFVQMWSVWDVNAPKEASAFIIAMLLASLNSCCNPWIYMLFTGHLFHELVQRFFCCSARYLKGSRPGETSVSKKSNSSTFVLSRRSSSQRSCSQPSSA
Method: Oxytocin Receptor Binding
Female Sprague-Dawley rats weighing approximately 200-250 g are injected intramuscularly (i.m.) with 0.3 mg/kg of body weight of diethylstilbestrol (DES). The rats are sacrificed 18 hours later under pentobarbital anesthesia. The uteri are dissected out, cleaned of fat and connective tissues and rinsed in 50 ml of normal saline. The tissue pooled from six rats is homogenized in 50 ml of […] TriS.HCl, containing 0.5 mM dithiothreitol and 1.0 mM EDTA, adjusted to pH 7.4, using a polytron at setting 6 with three passes of 10 sec each. The homogenate is passed through two (2) layers of cheesecloth and the filtrate contrifuged at 1000×g for 10 min. The clear supernatant is removed and recentrifuged at 165,000×g for 30 min. The resulting pellet containing the oxytocin receptors is resuspended in 50.0 mM Tris.HCl containing 5.0 mM MgCl2 at pH 7.4, to give a protein concentration of 2.5 mg/ml of tissue suspension. This preparation is used in subsequent binding assays with [^3 H]Oxytocin.
Binding of 3,5-[^3 H]Oxytocin ([^3 H]OT) to its receptors is done in microtiter plates using [^3 H]OT, at various concentrations, in an assay buffer of 50.0 mM Tris.HCl, pH 7.4 and containing 5.0 mM MgCl2, and a mixture of protease inhibitors: BSA, 0.1 mg; aprotinin, 1.0 mg; 1,10-phenanthroline, 2.0 mg; […], 10.0 mg; and PMSF, 0.3 mg per 100 ml of buffer solution. Non-specific binding is determined in the presence of 1.0 uM unlabeled OT. The binding reaction is terminated after 60 min., at 22° C., by rapid filtration through glass fiber filters using a Brandel® cell harvester (Biomedical Research and Development Laboratories, Inc., Gaithersburg, Md.). Competition experiments are conducted at equilibrium using 1.0 nM [^3 H]OT and varying the concentration of the displacing agents. The concentrations of agent displacing 50% of [^3 H]OT at its sites (IC50) are calculated by a computer assisted LUNDON-2 program (LUNDON SOFTWARE INC., Ohio, U.S.A.).

O=C(Nc1ccc(C(=O)N2CCc3cn[nH]c3-c3sccc32)cc1)c1ccc(F)cc1Cl [Example 1, N-[4-[(4,5-Dihydropyrazolo[3,4-d]thieno[3,2-b]azepin-6(1H)-yl)carbonyl]phenyl]-2-chloro-4-fluorobenzamide]
Urine Vol. (ml/4 hrs.) (Vasopressin V2): 15.3 ml/4 hrs. | Osmolality (mOsm/kg) (Vasopressin V2): 535 mOsm/kg | pIC50 (oxytocin receptors): 5.60 | inhibition at 10 µM (oxytocin receptors): 93%

O=C(Nc1ccc(C(=O)N2CCc3cn[nH]c3-c3ncccc32)cc1)c1ccccc1-c1ccccc1 [Example 365, N-[4-[(4,5-Dihydropyrazolo[3,4-d]pyrido[3,2-b]azepin-6(1H)-yl)carbonyl]phenyl][1,1'-biphenyl]-2-carboxamide]
Urine Vol. (ml/4 hrs.) (Vasopressin V2): 2.6 ml/4 hrs. | Osmolality (mOsm/kg) (Vasopressin V2): 251 mOsm/kg | pIC50 (oxytocin receptors): 5.60 | inhibition at 10 µM (oxytocin receptors): 57%

Cc1ccc(F)cc1C(=O)Nc1ccc(C(=O)N2CCc3c[nH]nc3-c3ncccc32)cc1 [Example 367, N-[4-[4(4,5-Dihydropyrazolo[3,4-d]pyrido[3,2-b]azepin-6(1H)-yl)carbonyl]phenyl]-5-fluoro-2-methylbenzamide]
Urine Vol. (ml/4 hrs.) (Vasopressin V2): 10 ml/4 hrs. | Osmolality (mOsm/kg) (Vasopressin V2): 627 mOsm/kg | pIC50 (oxytocin receptors): 5.68 | inhibition at 10 µM (oxytocin receptors): 63%
